From ChEMBL document CHEMBL1201862, “PubChem BioAssay data set” (2004)
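96-well plates; 48 h exposure; 5 concentrations. Endpoints by linear interpolation between flanking doses. Not reached: highest tested concentration assigned. At the GI50, growth is halved.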 Calls of active or inactive are those of the source. Cut-off read from the data, not from the text of the source: active = GI50 up to about 1.1 µM and inactive = higher.

Assays:
Experiment in all cases: NCI anticancer screen, dose series, 48 h
[1] = test system: A498
[2] = test system: A549
[3] = test system: ACHN
[4] = test system: CAKI-1
[5] = test system: CCRF-CEM
[6] = test system: HCT-15
[7] = test system: IGROV-1
[8] = test system: LOX IMVI
[9] = test system: MOLT-4
[10] = test system: NCI-H460
[11] = test system: OVCAR-8
[12] = test system: SF-539
[13] = test system: SNB-75
[14] = test system: U-251
[15] = test system: UACC-257

SMILES: C=CCNC(=O)NCCCC(NC(C)=O)C(=O)NCc1ccccc1 (stereo unspecified)
- GI50 [1]: > 100 µM (inactive)
- GI50 [2]: > 100 µM (inactive)
- GI50 [3]: > 100 µM (inactive)
- GI50 [4]: > 100 µM (inactive)
- GI50 [5]: > 100 µM (inactive)
- GI50 [6]: > 100 µM
- GI50 [7]: > 100 µM (inactive)
- GI50 [8]: > 100 µM (inactive)
- GI50 [9]: > 100 µM (inactive)
- GI50 [10]: > 100 µM (inactive)
- GI50 [11]: > 100 µM (inactive)
- GI50 [12]: > 100 µM (inactive)
- GI50 [13]: > 100 µM (inactive)
- GI50 [14]: > 100 µM (inactive)
- GI50 [15]: > 100 µM (inactive)

SMILES: O=C1/C(=C(\Nc2ccccc2)c2ccccc2)C=NN1c1ccccc1
- GI50 [1]: > 100 µM (inactive)
- GI50 [2]: > 100 µM (inactive)
- GI50 [3]: 61 µM (inactive)
- GI50 [4]: > 100 µM (inactive)
- GI50 [5]: > 100 µM (inactive)
- GI50 [6]: > 100 µM
- GI50 [7]: > 100 µM (inactive)
- GI50 [8]: > 100 µM (inactive)
- GI50 [9]: 29.3 µM (inactive)
- GI50 [10]: 96.4 µM (inactive)
- GI50 [11]: > 100 µM (inactive)
- GI50 [12]: > 100 µM (inactive)
- GI50 [13]: > 100 µM (inactive)
- GI50 [14]: > 100 µM (inactive)
- GI50 [15]: > 100 µM (inactive)

SMILES: COC(=O)C(=O)C(C(=O)C=C(C)C)C(=O)C(=O)Nc1nc2ccc([N+](=O)[O-])cc2s1 (stereo unspecified)
- GI50 [1]: 30.5 µM (inactive)
- GI50 [2]: 78.7 µM (inactive)
- GI50 [3]: 33.3 µM (inactive)
- GI50 [4]: 29.5 µM (inactive)
- GI50 [5]: 38.7 µM (inactive)
- GI50 [6]: 50.6 µM
- GI50 [7]: 24.9 µM (inactive)
- GI50 [8]: 56.4 µM (inactive)
- GI50 [9]: 36.4 µM (inactive)
- GI50 [10]: 72.8 µM (inactive)
- GI50 [11]: > 100 µM (inactive)
- GI50 [12]: 36.6 µM (inactive)
- GI50 [13]: 21.4 µM (inactive)
- GI50 [14]: 49.8 µM (inactive)
- GI50 [15]: 79.8 µM (inactive)

SMILES: CC(C)(CN1CCCCC1)C(=O)CC(SCCS(=O)(=O)O)c1ccc(Br)cc1 (stereo unspecified)
- GI50 [1]: 2.1 µM (inactive)
- GI50 [2]: 1.98 µM (inactive)
- GI50 [3]: 1.67 µM (inactive)
- GI50 [4]: 2.4 µM (inactive)
- GI50 [6]: 2.82 µM
- GI50 [7]: 1.97 µM (inactive)
- GI50 [9]: 2.23 µM (inactive)
- GI50 [10]: 2.14 µM (inactive)
- GI50 [11]: 2.38 µM (inactive)
- GI50 [12]: 1.6 µM (inactive)
- GI50 [13]: 2.07 µM (inactive)
- GI50 [14]: 1.56 µM (inactive)
- GI50 [15]: 3.17 µM (inactive)

SMILES: Cc1ccc(-c2cc(-c3ccco3)c(C#N)c(O)n2)cc1
- GI50 [1]: > 100 µM (inactive)
- GI50 [2]: > 100 µM (inactive)
- GI50 [3]: > 100 µM (inactive)
- GI50 [5]: > 100 µM (inactive)
- GI50 [6]: > 100 µM
- GI50 [7]: > 100 µM (inactive)
- GI50 [8]: > 100 µM (inactive)
- GI50 [9]: > 100 µM (inactive)
- GI50 [10]: > 100 µM (inactive)
- GI50 [11]: > 100 µM (inactive)
- GI50 [12]: > 100 µM (inactive)
- GI50 [13]: 18.7 µM (inactive)
- GI50 [14]: 82.8 µM (inactive)
- GI50 [15]: > 100 µM (inactive)

SMILES: CC(=O)Nc1ccc(/C=C/C(=O)c2sc(C(N)=S)nc2C)cc1
- GI50 [1]: > 100 µM (inactive)
- GI50 [2]: > 100 µM (inactive)
- GI50 [4]: > 100 µM (inactive)
- GI50 [5]: 81.1 µM (inactive)
- GI50 [6]: > 100 µM
- GI50 [7]: > 100 µM (inactive)
- GI50 [8]: > 100 µM (inactive)
- GI50 [9]: > 100 µM (inactive)
- GI50 [10]: > 100 µM (inactive)
- GI50 [11]: > 100 µM (inactive)
- GI50 [12]: > 100 µM (inactive)
- GI50 [13]: > 100 µM (inactive)
- GI50 [14]: > 100 µM (inactive)
- GI50 [15]: > 100 µM (inactive)

SMILES: O=C(O)[C@@H](NS(=O)(=O)c1ccc2ccccc2c1)c1ccccc1
- GI50 [1]: > 100 µM (inactive)
- GI50 [3]: > 100 µM (inactive)
- GI50 [4]: > 100 µM (inactive)
- GI50 [5]: > 100 µM (inactive)
- GI50 [6]: > 100 µM
- GI50 [7]: > 100 µM (inactive)
- GI50 [8]: > 100 µM (inactive)
- GI50 [9]: > 100 µM (inactive)
- GI50 [10]: > 100 µM (inactive)
- GI50 [12]: > 100 µM (inactive)
- GI50 [13]: > 100 µM (inactive)
- GI50 [14]: > 100 µM (inactive)
- GI50 [15]: > 100 µM (inactive)

SMILES: Cc1ccc(S(=O)(=O)c2c(N)n(CCN(C)C)c3nc4ccccc4nc23)cc1
- GI50 [2]: > 100 µM (inactive)
- GI50 [3]: > 100 µM (inactive)
- GI50 [5]: 96.6 µM (inactive)
- GI50 [6]: > 100 µM
- GI50 [7]: > 100 µM (inactive)
- GI50 [9]: > 100 µM (inactive)
- GI50 [10]: > 100 µM (inactive)
- GI50 [11]: > 100 µM (inactive)
- GI50 [12]: > 100 µM (inactive)
- GI50 [13]: > 100 µM (inactive)
- GI50 [14]: > 100 µM (inactive)
- GI50 [15]: 71.9 µM (inactive)
